Measurements as given in ChEMBL document CHEMBL1201862, “PubChem BioAssay data set” (2004).
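Tested at 5 concentrations; 48 h exposure; 96-well plates; endpoints linearly interpolated, else capped at highest concentration. The concentration for 50% growth inhibition is given as GI50.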 Active and inactive are the calls of the source. No stated cut-off is given here; in the data, active = GI50 up to about 1.1 µM and inactive = higher.

What was measured:
Assay in all cases: NCI-60 cell line screen, 48 h
[1] = system: CCRF-CEM
[2] = system: RPMI-8226
[3] = system: ACHN
[4] = system: SR
[5] = system: KM12
[6] = system: NCI-H522
[7] = system: SNB-19
[8] = system: DU-145
[9] = system: HCC 2998
[10] = system: RXF 393
[11] = system: UACC-62
[12] = system: CAKI-1
[13] = system: NCI-H460
[14] = system: SF-295
[15] = system: SF-268
[16] = system: Malme-3M
[17] = system: M14
[18] = system: A549
[19] = system: OVCAR-3
[20] = system: BT-549
[21] = system: U-251
[22] = system: SK-OV-3
[23] = system: EKVX
[24] = system: HT-29
[25] = system: UO-31
[26] = system: SN12C
[27] = system: LOX IMVI
[28] = system: COLO 205
[29] = system: NCI/ADR-RES
[30] = system: HOP-62
[31] = system: PC-3
[32] = system: IGROV-1
[33] = system: MOLT-4
[34] = system: OVCAR-5
[35] = system: UACC-257
[36] = system: MDA-MB-435
[37] = system: MDA-MB-231
[38] = system: SF-539
[39] = system: T47D
[40] = system: OVCAR-8
[41] = system: Hs-578T
[42] = system: MCF7
[43] = system: HCT-15
[44] = system: SW-620
[45] = system: HL-60
[46] = system: HOP-92
[47] = system: A498
[48] = system: OVCAR-4
[49] = system: SK-MEL-2
[50] = system: NCI-H23
[51] = system: TK-10
[52] = system: SK-MEL-28
[53] = system: 786-0
[54] = system: HCT-116
[55] = system: SK-MEL-5
[56] = system: K562
[57] = system: MDA-N
[58] = system: NCI-H226
[59] = system: SNB-75

## Cc1cc2c(cc1C)[n+]([O-])c(C(=O)N1CCN(c3ccc([N+](=O)[O-])cc3)CC1)c(C)[n+]2[O-]
[1]
  GI50: > 100 µM (inactive)
[2]
  GI50: > 100 µM (inactive)
[3]
  GI50: 2.84 µM (inactive)
[4]
  GI50: > 100 µM (inactive)
[5]
  GI50: > 100 µM (inactive)
[6]
  GI50: 75.3 µM (inactive)
[7]
  GI50: 64.9 µM (inactive)
[8]
  GI50: 29.5 µM (inactive)
[9]
  GI50: 26.8 µM (inactive)
[10]
  GI50: 14.4 µM (inactive)
[11]
  GI50: 41.9 µM (inactive)
[12]
  GI50: > 100 µM (inactive)
[13]
  GI50: 22.9 µM (inactive)
[14]
  GI50: 16.1 µM (inactive)
[15]
  GI50: 19 µM (inactive)
[16]
  GI50: > 100 µM (inactive)
[17]
  GI50: 32.5 µM (inactive)
[18]
  GI50: 82.2 µM (inactive)
[19]
  GI50: > 100 µM (inactive)
[20]
  GI50: 22.6 µM (inactive)
[21]
  GI50: 11.9 µM (inactive)
[22]
  GI50: 18.2 µM (inactive)
[23]
  GI50: 24.4 µM (inactive)
[24]
  GI50: > 100 µM (inactive)
[25]
  GI50: 28.5 µM (inactive)
[26]
  GI50: 63.7 µM (inactive)
[27]
  GI50: 90.2 µM (inactive)
[28]
  GI50: > 100 µM (inactive)
[29]
  GI50: > 100 µM (inactive)
[30]
  GI50: 12.8 µM (inactive)
[31]
  GI50: 93.3 µM (inactive)
[32]
  GI50: 27.6 µM (inactive)
[33]
  GI50: > 100 µM (inactive)
[34]
  GI50: 62.8 µM (inactive)
[35]
  GI50: > 100 µM (inactive)
[36]
  GI50: > 100 µM (inactive)
[37]
  GI50: 21.8 µM (inactive)
[38]
  GI50: 17.7 µM (inactive)
[39]
  GI50: 63.2 µM (inactive)
[40]
  GI50: 27.5 µM (inactive)
[41]
  GI50: 96.2 µM (inactive)
[42]
  GI50: > 100 µM (inactive)
[43]
  GI50: 77.6 µM
[44]
  GI50: > 100 µM (inactive)
[45]
  GI50: > 100 µM (inactive)
[46]
  GI50: 23.6 µM (inactive)
[47]
  GI50: 27.2 µM (inactive)
[48]
  GI50: > 100 µM (inactive)
[49]
  GI50: 38.5 µM (inactive)
[50]
  GI50: 26.5 µM (inactive)
[51]
  GI50: 18.1 µM (inactive)
[52]
  GI50: > 100 µM (inactive)
[53]
  GI50: 14.3 µM (inactive)
[54]
  GI50: 28.9 µM (inactive)
[55]
  GI50: 74.6 µM (inactive)
[56]
  GI50: > 100 µM (inactive)
[57]
  GI50: > 100 µM (inactive)

## C#CC1(O)C(COP(=O)(O)OC(COCCCCCCCCCCCCCCCCCC)COP(=O)(O)OCC2OC(n3cc(C)c(=O)[nH]c3=O)CC2N=[N+]=[N-])OC(n2ccc(N)nc2=O)C1O (stereo not given)
[1]
  GI50: 0.562 µM (active)
[2]
  GI50: 0.0644 µM (active)
[3]
  GI50: 0.432 µM (active)
[4]
  GI50: < 0.0429 µM (active)
[5]
  GI50: 0.891 µM (active)
[6]
  GI50: 0.083 µM (active)
[7]
  GI50: 1.8 µM (inactive)
[8]
  GI50: 0.946 µM (active)
[10]
  GI50: 1.37 µM (inactive)
[11]
  GI50: 1.88 µM (inactive)
[12]
  GI50: 0.31 µM (active)
[13]
  GI50: 0.0843 µM (active)
[14]
  GI50: 0.221 µM (active)
[15]
  GI50: 0.957 µM (active)
[16]
  GI50: 1.66 µM (inactive)
[17]
  GI50: 8.02 µM (inactive)
[18]
  GI50: 0.29 µM (active)
[19]
  GI50: 4.58 µM (inactive)
[20]
  GI50: 2.68 µM (inactive)
[21]
  GI50: 0.264 µM (active)
[22]
  GI50: 4 µM (inactive)
[23]
  GI50: 5.25 µM (inactive)
[24]
  GI50: 1.16 µM (inactive)
[25]
  GI50: 0.194 µM (active)
[26]
  GI50: 0.807 µM (active)
[27]
  GI50: 0.224 µM (active)
[28]
  GI50: 0.512 µM (active)
[29]
  GI50: 1.22 µM (inactive)
[30]
  GI50: 1.82 µM (inactive)
[31]
  GI50: 2.86 µM (inactive)
[32]
  GI50: 0.381 µM (active)
[33]
  GI50: 0.347 µM (active)
[34]
  GI50: 3.28 µM (inactive)
[35]
  GI50: 3.77 µM (inactive)
[58]
  GI50: 1.56 µM (inactive)
[36]
  GI50: 0.859 µM (active)
[37]
  GI50: 2.39 µM (inactive)
[38]
  GI50: 0.282 µM (active)
[39]
  GI50: 3.73 µM (inactive)
[40]
  GI50: 0.881 µM (active)
[41]
  GI50: 5.4 µM (inactive)
[42]
  GI50: 0.122 µM (active)
[43]
  GI50: 0.582 µM
[44]
  GI50: 0.453 µM (active)
[45]
  GI50: 0.617 µM (active)
[59]
  GI50: 2.52 µM (inactive)
[46]
  GI50: 0.91 µM (active)
[47]
  GI50: 1.69 µM (inactive)
[48]
  GI50: 4.45 µM (inactive)
[49]
  GI50: 0.382 µM (active)
[50]
  GI50: 2.61 µM (inactive)
[51]
  GI50: 0.505 µM (active)
[52]
  GI50: 2.31 µM (inactive)
[53]
  GI50: 0.706 µM (active)
[54]
  GI50: 0.105 µM (active)
[55]
  GI50: 2.75 µM (inactive)
[56]
  GI50: 0.216 µM (active)
[57]
  GI50: 1.14 µM (inactive)
